Assay [1] has as its target T1, human 20S proteasome (h20S core particle).
T1 construct: gene PSMB5
Briefly: fluorogenic AMC peptide cleavage by purified h20S (activation; Ch-L EC50 […], T-L EC50 […]). The format is biochemical.

In assay [2] the test system is T1, human 20S proteasome (h20S core particle). Briefly: fluorogenic AMC peptide cleavage by h20S at […] (activation similar to suxibuzone). The format is biochemical.

The structures appear in SMILES notation.

For the molecule `CCCCC1(COC(=O)CCC(=O)O)C(=O)N(c2ccccc2)N(c2ccccc2)C1=O` [SB, suxibuzone], the EC50 (usually the midpoint of the concentration-response curve) in assay [1] stood at 4.4 ± 0.4 µM.

With `CCCCC1(COC(=O)CCC(=O)NCCO)C(=O)N(c2ccccc2)N(c2ccccc2)C1=O` [SB-ETA], the “fluorogenic AMC peptide cleavage by h20S at 5 and 10 uM (activation similar to s)” value in assay [2] is “both test compounds had activity similar to suxibuzone, with no statistically significant difference”.

Source of the values: PMC12677842, “Unveiling the Potential of a New β‐Cyclodextrin‐Suxibuzone Conjugate in Proteasome Regulation” (Chemmedchem, 2025).
